Data set [1] has as its system BioMAP® systems (primary human cells). The class given is cell-based.
Data set [2] deals with endothelial cells and PBMC.

As for `CO/C(=C/C(N)=O)[C@H](C)[C@H](/C=C/c1csc(-c2csc([C@@H](C)/C=C/C=C/C(C)C)n2)n1)OC` [Myxothiazol], in data set [1], the IL1 level entry was “upregulation”, the MCP1 level result is “inhibition”, the T cell activation result is “inhibition” and the VCAM level entry is “upregulation”. Further, in data set [1], the proliferation entry was “inhibition”.

Regarding `C=C(CC)C(=O)c1ccc(OCC(=O)O)c(Cl)c1Cl` [ethacrynic acid], in data set [2] (10 μM), the E-selectin level result was “inhibition”, the HLA-DR level result was “inhibition”, the PBMC proliferation entry is “inhibition” and the T cell activation result is recorded as “inhibition”. For the same molecule, in data set [2] (10 μM), the VCAM level result was “inhibition” and the monocyte activation entry is reported as “inhibition”.

With `COC[C@H]1OC(=O)c2coc3c2[C@@]1(C)C1=C(C3=O)[C@@H]2CCC(=O)[C@@]2(C)C[C@H]1OC(C)=O` [Wortmannin], in data set [2], the cytotoxicity result was “not cytotoxic”.

The values are drawn from patent publication US10240255B2 (priority 2007, dated 2019).
